# Data: PMC4850295, “Using a Genetically Encoded Sensor to Identify Inhibitors of Toxoplasma gondii Ca^2+ Signaling” (The Journal of Biological Chemistry, 2016)
# Test system: T1, GCaMP5-expressing T. gondii
# T1 construct: whole extracellular parasites expressing GCaMP5 Ca2+ sensor
# Parameters: species or system GCaMP5-expressing Toxoplasma gondii, extracellular; GCaMP5 fluorescence (cytosolic Ca2+) after 100 uM zaprinast in compound-pretreated extracellular parasites, background-subtracted, relative to zaprinast alone
# Details: 100 uM zaprinast stimulation; 10 min pretreatment; mean of two replicates; 0.23 h
# Summary of the method: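 Extracellular GCaMP5-expressing parasites in Ringer's solution were pretreated with compounds (single 10 μM dose, two biological replicates) for 10 min, then stimulated with 100 μM zaprinast at 37 °C for 4 min. Fluorescence read at 485/525 nm, basal subtracted, expressed as fold change relative to zaprinast-only parasites.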
row,SMILES,fold change in fluorescence relative to zaprinast alone
1,CN(C)C(=O)O[C@@H]1CN[C@@H](C#Cc2cc3ncnc(Nc4ccc(OCc5cccc(F)c5)c(Cl)c4)c3s2)C1 [GSK238063A],1.133
2,COc1cc(Nc2nccc(-c3c(-c4cccc(NC(=O)c5c(F)cccc5F)c4)nn4ncccc34)n2)cc(OC)c1OC [GSK327238A],1.28
3,C[C@@H](Oc1cc(-n2cnc3ccc(OC4CCN(C)CC4)cc32)sc1C(N)=O)c1ccccc1Cl [GSK579289A],0.9541
4,Oc1cccc(-c2nc(-c3ccccc3)[nH]c2-c2ccncc2)c1 [SB-610251-B],1.022
5,Fc1cccc(COc2ccc(Nc3ncnc4sc(-c5ccco5)cc34)cc2Cl)c1 [GSK969786A],0.8987
6,Cn1cnc2c(N)ncnc21 [SKF-97623],1.06
7,Cc1ccc(C(=O)NC2CCCC2)cc1-c1ccc(C(=O)NCC2CC2)cc1 [GW800172X],1.109
8,Nc1nccc2scc(-c3ccc4c(c3)CCN4C(=O)Cc3cc(F)ccc3F)c12 [GSK2587663A],0.7245
9,Cc1ccc(NC(=O)Nc2cccc(Cl)c2)cc1-c1ccc(C(=O)Nc2ccncc2)cc1 [GSK1398468A],0.4262
10,FC(F)(F)c1ccc(-c2nn3ncccc3c2-c2ccnc(Nc3ccc(Cl)c(C(F)(F)F)c3)n2)cc1 [GW829350X],0.9679
11,COc1ccc(NC(=O)c2ccc(-c3cc(-c4nnc(C)o4)ccc3C)cc2)cc1 [GW595885X],1.221
12,Cc1ccc(CC(=O)N2CCc3cc(-c4cn(C)c5ncnc(N)c45)ccc32)cc1 [GSK2634758A],1.068
13,Fc1ccc(-c2c(-c3ccncc3)nc3n2CCS3)cc1 [SKF-86055],1.285
14,CS(=O)(=O)CCNCc1ccc(-c2ccc3ncnc(Nc4ccc(OCc5cccc(F)c5)c(C(F)(F)F)c4)c3c2)o1 [GW576484X],0.5624
15,Nc1ncc(-c2cn[nH]c2)c2scc(-c3ccc4c(c3)CCN4C(=O)Cc3ccccc3)c12 [GSK2593067A],1.414
16,COC(=O)Nc1nc2ccc(Oc3ccc(CC(=O)Nc4cc(C(F)(F)F)ccc4F)cc3)cc2[nH]1 [GW680903X],1.756
17,N#Cc1ccc2c(-c3ccnc(NC4CC4)n3)c(-c3ccc(F)cc3)nn2c1 [GW561436X],0.8796
18,CC1=C(C(=O)Nc2ccc3[nH]nc(C)c3c2)C(c2ccc(C(F)(F)F)cc2)CC(=O)N1 (centres unmarked) [GSK466314A],1.189
19,COc1cc(Nc2nccc(-c3c(-c4cccc(NC(=O)c5c(F)cccc5F)c4)nn4ccccc34)n2)cc(OC)c1OC [GSK323521A],1.412
20,NCC(C(=O)Nc1cc(Br)c(-c2ccnc3[nH]ccc23)s1)c1ccccc1 (centres unmarked) [GSK1269851A],0.2436
21,CN1CCC(C(=O)Nc2n[nH]c3nnc(-c4ccccc4)cc23)CC1 [SB-678557-A],1.083
22,Nc1n[nH]c2nnc(-c3ccccc3)cc12 [SB-517389],1.055
23,O=c1[nH]ccc2nc(N[C@@H]3CCNC3)nc(Nc3cc(Cl)cc(Cl)c3)c12 [GSK2188764A (Enh2)],2.366

row,SMILES,fold change in fluorescence relative to zaprinast alone
1,Cc1cc(-c2ccco2)cc(C)c1/C=C/c1cncc(-c2nn[nH]n2)c1 [GW458344A],1.482
2,CC(C)COC(=O)c1ccc2c(c1)/C(=C/Nc1ccc(S(N)(=O)=O)cc1)C(=O)N2 [GW416981X],1.146
3,Cc1ccc(Nc2ccnc(Nc3cccc(C(N)=O)c3)n2)cc1O [GW575808A],1.342
4,CCOC(=O)N1CCC(n2cnc(-c3ccc(F)cc3)c2-c2ccnc(N)n2)CC1 [SB-219952],0.8316
5,CC(C)c1nc(-c2cccc(NS(=O)(=O)c3ccccc3)c2)c(-c2ccnc(Nc3ccc4c(c3)CN(C)CC4)n2)s1 [GSK1649598A],0.9359
6,COc1ccc(-n2cnc3c(N)ncnc32)cc1 [SKF-97236],1.027
7,CNc1nccc(-c2ccc3c(N)n[nH]c3c2)n1 [GSK2206003A],1.243
8,CC1=C(C(=O)Nc2ccc3[nH]ncc3c2)C(c2ccc3ccccc3c2)CC(=O)N1 (centres unmarked) [GSK270822A],1.167
9,CN(C)C(=O)O[C@H]1CN[C@H](C#Cc2cc3ncnc(Nc4ccc(OCc5cccc(F)c5)c(Cl)c4)c3s2)C1 [GSK182497A],1.183
10,Clc1cc(Cl)cc(Nc2ccnc(Nc3cc(Cl)cc(Cl)c3)n2)c1 [GSK175726A],0.5192
11,COc1cccc(C2=C(Nc3cc(Cl)c(O)c(Cl)c3)C(=O)NC2=O)c1 [SB-390767],1.06
12,O=C1NC(=O)C(c2ccc(Cl)cc2)=C1Nc1ccc(O)cc1 [SB-340867],1.192
13,O=S(=O)(CCOCc1ccc(-c2ccc3ncnc(Nc4ccc(OCc5cccc(F)c5)c(Cl)c4)c3c2)o1)c1ccccc1 [GW615311X],1.258
14,NC(=O)c1cc(-c2ccc(F)cc2)cc(-c2ccncc2)c1N [GSK620503A],1.057
15,Cc1ccc(C(=O)NC2CC2)cc1-c1ccc2[nH]ncc2c1 [GW820759X],1.265
16,Clc1ccc(-c2nn3ncccc3c2-c2ccnc(Nc3ccccc3)n2)cc1 [GW829055X],1.188
17,Cc1ccc(NC(=O)c2cccc(N3CCCCC3)c2)cc1-c1ccc(C(=O)NCC2CC2)cc1 [GSK1917008A],1.193
18,CCc1ccc(Oc2nccc(-c3c(-c4ccc(F)cc4)ncn3C3CCNCC3)n2)cc1 [SB-242719],1.455
19,CN(c1ccc2c(c1)nc(NCc1ccc(F)cc1)n2C)c1ccnc(Nc2ccc(CS(C)(=O)=O)cc2)n1 [GW813244A],1.154
20,COc1ccc2cc(-c3c(-c4ccncc4)nc(-c4ccc(SC)cc4C)n3C)ccc2c1 [SB-625086-M],0.941
21,CCS(=O)(=O)c1ccc(OC)c(Nc2ncc(-c3ccc(F)cc3)o2)c1 [GW591947A],1.203
22,Cc1ccc(-c2cc3c(NC(=O)C4CC4)ncnc3o2)cc1 [GW819230X],1.19
23,CCOc1nccc2c1nc(-c1nonc1N)n2CC [SB-737198],0.8453

row,SMILES,fold change in fluorescence relative to zaprinast alone
1,CNC(=O)c1ncccc1Nc1nc(Nc2cc3c(cc2OC)CCCN3C(=O)CN(C)C)nc2[nH]ccc12 [GSK2220400A],1.127
2,O=C1NC(=O)C(c2ccc(Cl)cc2)=C1Nc1cccc(Cl)c1 [SB-317651],0.9895
3,c1ccc(-c2ccc3c(Nc4ccc5[nH]ccc5c4)ccnc3c2)nc1 [GW440138A],1.081
4,Nc1ncnc2c1ncn2-c1cccc(F)c1 [SKF-97560],1.042
5,CCCc1ccc(S(=O)(=O)NC2CCN(c3ccnc(Nc4ccc(F)cc4)n3)C2)cc1 (centres unmarked) [GSK1379715A],0.5743
6,O=C1Nc2ccccc2C1=C1CCc2cc(O)ccc21 [GR105659X],1.22
7,NCCC(NC(=O)c1cc(Br)c(-c2ccnc3[nH]ccc23)s1)c1ccccc1 (centres unmarked) [GSK1307810A],0.5195
8,Nc1nc(-c2ccc(F)cc2)c(-c2ccc3ncccc3n2)s1 [GW785804X],1.356
9,NC[C@H](Cc1ccc(C(F)(F)F)cc1)NC(=O)c1cc(Br)c(-c2ccnc3[nH]ccc23)s1 [GSK1487252A],0.4926
10,COc1c(C(N)=O)cc(-c2ccc(Cl)cc2)cc1-c1ccc(S(N)(=O)=O)cc1 [GSK711701A],1.357
11,CSc1cccc2c(-c3ccncn3)c(-c3ccc(F)cc3)nn12 [GW514786X],0.1155
12,O=C(Nc1n[nH]c2cc(-c3cccc(F)c3F)ccc12)C1CC1 [SB-733894],1.167
13,O=C(Nc1n[nH]c2nc(-c3cccc(O)c3)ccc12)C1CC1 [SB-711805],0.905
14,Fc1ccc(-c2nn3cccc(F)c3c2-c2ccncc2)cc1 [GW475620X],0.2984
15,Nc1nccc(-c2c(-c3ccc(F)cc3)ncn2C2CCN(Cc3ccccc3)CC2)n1 [SB-219980],0.5084
16,CCn1c(-c2nonc2N)nc2cncc(CNC3CCNCC3)c21 [SB-747651-A],1.501
17,COc1ccccc1CNC(=O)c1cc(C(=O)c2ccccc2C)c[nH]1 [GSK364507A],1.353
18,Cc1ccc(NC(=O)CC2CC2)cc1-c1ccc(C(=O)NCC2CC2)cc1 [GW796920X],1.231
19,CNC(=O)c1ccccc1Nc1nc(Nc2cccc(CS(C)(=O)=O)c2)ncc1C [GSK1520489A],1.293
20,CCS(=O)(=O)c1ccc(OC)c(Nc2ncc(-c3cccc(C(C)=O)c3)o2)c1 [GW621431X],1.216
21,COc1cc(N2CCN(C(C)C)CC2)ccc1Nc1nc(Nc2ccc(F)cc2C(N)=O)c2cc[nH]c2n1 [GSK1220512A],1.812
22,O=C(Nc1n[nH]c2cc(-c3ccsc3)ccc12)C1CC1 [SB-732932],1.052
